The record followed here is US12071469B2, “Peptide compounds for suppressing inflammation” (Duke University, priority 2011, dated 2024).

The subject of test [1] is primary rat neuronal cortical culture exposed to NMDA. As to the kind of experiment: Neuroprotection from NMDA mediated cell death in primary neuronal culture (LDH release). Format: cell-based. The procedure: Peptides of 5 amino acids in length were applied to one or more samples of cells in parallel at concentrations ranging from about 0 to about 50 μM, such as 0.3, 3, and 30 μM. The peptides AL-10-1 (SEQ ID NO:18) and VL-17-9 (SEQ ID NO:19), which are longer peptides (12 amino acids each) were used as negative and positive controls, respectively. A series of peptides were screened in primary rat neuronal cortical culture exposed to NMDA using the method described in Aono et al., Neuroscience (2003) 116:437 and Aono et al., Neurobiology of Disease (2002) 11:214, both of which are incorporated by reference in their entirety (see Table 2). Neuroprotection from NMDA mediated cell death in primary neuronal culture was expressed as percentage decrease in LDH, 24 hours after exposure to NMDA compared to vehicle treated cultures (Table 2). LDH release is indicative of neuronal death after NMDA exposure. The peptide VR-55 (SEQ ID NO:4) reduced NMDA mediated excitotoxic cell death by approximately 19% at a concentration of 1 μM. […] The positive control peptide VL-17-9 reduced LDH release by 31%.
Dose response of the neuroprotection from NMDA excitotoxicity in primary neuronal culture was determined for ApoE mimetic peptide VR-55 (SEQ ID NO: 4). […] “0” indicates less than 5% suppression; “+” indicates 5-10% suppression; “++” indicates 11-20% suppression; and “+++” indicates greater than 20% suppression. In addition to VL-17-9, several other candidates had greater than 20% suppression, including VR-55, VL-5-1, VL-5-2 and VR-52.

The test system of test [2] is mice with middle cerebral artery occlusion (focal ischemia-reperfusion). Briefly: Rotorod vestibulomotor function after modified middle cerebral artery occlusion (MCAO). The class given is in vivo, mouse. The source says:
A modified middle cerebral artery occlusion (MCAO) model (Huang et al., (1994) Science, 265:1883-1885; Laskowitz et al., (1997) J. Cereb. Blood Flow Metab., 17:753-758) was used to determine the effect of the mimetic peptides on neurological function after stroke and to evaluate the peptide's efficacy as a therapeutic agent for stroke. The mice were endotracheally intubated after anesthesia induction with 4.6% isoflurane, and the lungs were mechanically ventilated with 1.6% isoflurane in 30% O2/70% N2. Via a midline cervical skin incision, the right common carotid artery was identified. The external carotid artery was ligated and transected. The internal carotid artery was dissected distally until the origin of the pterygopalatine artery was visualized. A 6-0 nylon monofilament with blunted tip lightly coated with silicone was inserted into the proximal external carotid artery stump and advanced 11 mm into the internal carotid artery to occlude the middle cerebral artery. After 90 min, the filament was removed to restore blood perfusion, and the skin incision closed with suture. Isoflurane was discontinued and the mice were extubated upon the recovery of spontaneous respiration. Post-injury mice were placed in an oxygen-enriched environment (FIO2=50%) for 1 hr and then returned to their cages. Rectal temperature was continuously monitored and servoregulated with surface heating/cooling at 37° C. throughout the procedure.
Two groups of 10-12 week old male C57Bl/6J mice, a control group (n=12) and a VR-55-treated group (n=9), received MCAO. […]
An automated Rotorod (Ugo Basile, Comerio, Italy) was used to assess vestibulomotor function, as previously described above. […] The average time to fall from the rotating cylinder in the latter 3 trials was recorded as baseline functional Rotorod latency. […] The average latency to fall from the rod was recorded. […]

Take Ac-VSRRR-NH2 [VR-55, Ac-VSRRR-NH2]: the “dose response of percent suppression of LDH release after NMDA exposure” value in test [1] (FIG. 6) is “dose dependent”. Moreover, the figures for the “percentage decrease in LDH, 24 hours after exposure to NMDA compared to vehicle treated cultures” value in test [1] (peptide 0.1 μM), in test [1] (peptide 0.3 μM) and in test [1] (peptide 3 μM) were −2.85%, 1.50% and 15.91%, respectively. Besides, the “suppression of LDH release, cumulative data (class)” value in test [1] (peptide 1 μM, cumulative data) is recorded as “+++ (greater than 20% suppression)”. Also, the “functional Rotorod latency compared to control mice” value in test [2] (Day 3 post-injury, 0.05 mg/kg iv at 30 min and 6 hrs after reperfusion) was “improvement in functional Rotorod latency”. Besides, the “functional Rotorod latency” value in test [2] (Day 3 post-injury, 0.05 mg/kg iv at 30 min and 6 hrs after reperfusion, control mice 161+/−32 sec) was found to be 216 ± 26 s. Moreover, in test [2] (day before MCAO, control mice 217+/−20 sec), the “baseline functional Rotorod latency” value was determined as 214 ± 22 s.
